Target: T1, C-terminal GST-tagged, recombinant, human IGF-1R, amino acids 954-1367 (Homo sapiens, UniProt P08069)
T1 construct: human IGF-1R, amino acids 954-1367 expressed by baculovirus in Sf21 cells; GST (C); purchased Cell Signaling Technology; host or cells: baculovirus in Sf21 cells
Assay: IGF-1R kinase activity, homogenous time-resolved fluorescence (HTRF) in vitro kinase assay
Format: biochemical
Conditions: IGF-1R kinase HTRF assay, ATP 50 μM, biotinylated peptide substrate 0.5 μM, 60 minutes at room temperature
Experimental: IGF-1R kinase activity was assayed by a homogenous time-resolved fluorescence (HTRF) in vitro kinase assay (Mathis, G., HTRF(R) Technology. J Biomol Screen, 1999. 4(6): p. 309-314). Specifically, 10 μL C-terminal GST-tagged, recombinant, human IGF-1R, amino acids 954-1367 expressed by baculovirus in Sf21 cells (Cell Singaling Technology) was mixed with 10 μL inhibitor (various concentrations, 2% final DMSO) and 10 μL of ATP (50 μM final concentration) in reaction buffer (50 mM HEPES, pH […], 2 mM MnCl2, 0.1% BSA and 1 mM DTT, 40 μL final volume). The reaction was initiated by addition of 10 μL of biotinylated peptide substrate (Biotin-Ahx-[…], 0.5 μM final concentration) in a black 384-well plate (Packard). After 60 minutes incubation at room temperature, the reaction was quenched by addition of 60 μL stop/revelation buffer to give 30 mM EDTA, 1 μg/mL streptavidin-APC (Prozyme), 50 ng/mL anti-phosphotyrosine mAb PT66-K Europium Cryptate, 30 mM HEPES, pH 7.5, 120 mM KF, 0.005% Tween-20, 0.05% BSA). The quenched reaction was allowed to stand at room temperature for 1 hour and then read in a time-resolved fluorescence detector (Envision, Perkin Elmer) at 615 nm and 665 nm simultaneously. The ratio between the signal of 615 nm and 665 nm was used in the calculation of the IC50.

T1 sequence (P08069 954-1367): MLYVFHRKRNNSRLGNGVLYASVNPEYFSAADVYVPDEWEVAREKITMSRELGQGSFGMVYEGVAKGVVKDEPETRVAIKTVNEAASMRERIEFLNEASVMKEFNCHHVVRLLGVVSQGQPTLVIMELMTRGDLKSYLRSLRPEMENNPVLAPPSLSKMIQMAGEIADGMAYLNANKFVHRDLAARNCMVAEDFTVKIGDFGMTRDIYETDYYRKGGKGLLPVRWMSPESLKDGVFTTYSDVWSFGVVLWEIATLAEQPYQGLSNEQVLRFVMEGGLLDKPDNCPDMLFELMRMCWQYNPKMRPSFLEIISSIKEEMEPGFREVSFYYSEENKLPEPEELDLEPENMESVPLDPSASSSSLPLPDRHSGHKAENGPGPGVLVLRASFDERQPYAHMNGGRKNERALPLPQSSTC

SMILES | IC50 [nM]
CN(C)CCc1cccc(Nc2nccc(-c3c(-c4ccc(OCc5ccccc5)cc4)nn4ncccc34)n2)c1 [Example 76, 4-{2-[4-(benzyloxy)phenyl]pyrazolo[1,5-b]pyridazin-3-yl}-N-{3-[2-(dimethylamino)ethyl]phenyl}pyrimidin-2-amine] | < 25
COc1cc(-c2nc3sccn3c2-c2ccnc(Nc3ccccc3CN3CCCC3)n2)ccc1OCc1ccccc1 [Example 82, 4-{6-[4-(benzyloxy)-3-methoxyphenyl]imidazo[2,1-b][1,3]thiazol-5-yl}-N-[2-(pyrrolidin-1-ylmethyl)phenyl]pyrimidin-2-amine] | > 1000
CN(C)CCc1cccc(Nc2nccc(-c3c(-c4ccc(OCc5ccccc5)cc4)nn4ccccc34)n2)c1 [Example 75, 4-{2-[4-(benzyloxy)phenyl]pyrazolo[1,5-a]pyridin-3-yl}-N-{3-[2-(dimethylamino)ethyl]phenyl}pyrimidin-2-amine] | < 25
c1ccc(COc2ccc(-c3nc4sccn4c3-c3ccnc(Nc4ccccc4)n3)cc2)cc1 [Example 78, 4-{6-[4-(benzyloxy)phenyl]imidazo[2,1-b][1,3]thiazol-5-yl}-N-phenylpyrimidin-2-amine] | > 1000
FC(F)(F)Oc1cc(-c2nc3ccccn3c2-c2ccnc(Nc3cccc(CCN4CCCC4)c3)n2)ccc1OCc1ccccc1 [Example 58, 4-{2-[4-(benzyloxy)-3-(trifluoromethoxy)phenyl]imidazo[1,2-a]pyridin-3-yl}-N-[3-(2-pyrrolidin-1-ylethyl)phenyl]pyrimidin-2-amine] | > 1000
COc1ccc(NC(=O)CN(C)C)cc1Nc1nccc(-c2c(-c3ccc(OCc4ccccc4)c(OC)c3)nc3ccccn23)n1 [Example 71, N^1-{3-[(4-{2-[4-(benzyloxy)-3-methoxyphenyl]imidazo[1,2-a]pyridin-3-yl}pyrimidin-2-yl)amino]-4-methoxyphenyl}-N^2,N^2-dimethylglycinamide] | < 25
CN(C)S(=O)(=O)c1cccc(Nc2nccc(-c3c(-c4ccc(OCc5ccccc5)cc4)nc4ccccn34)n2)c1 [Example 5, 3-[(4-{2-[4-(benzyloxy)phenyl]imidazo[1,2-a]pyridin-3-yl}pyrimidin-2-yl)amino]-N,N-dimethylbenzenesulfonamide] | > 1000
COc1ccc(CCN(C)C)cc1Nc1nccc(-c2c(-c3ccc(OCc4ccccc4)c(OC)c3)nc3ccccn23)n1 [Example 59, 4-{2-[4-(benzyloxy)-3-methoxyphenyl]imidazo[1,2-a]pyridin-3-yl}-N-{5-[2-(dimethylamino)ethyl]-2-methoxyphenyl}pyrimidin-2-amine] | 25 to 100
COc1cc(-c2nc3ccccn3c2-c2ccnc(Nc3cnn(CCN(C)C)c3)n2)ccc1OCc1ccccc1 [Example 43, 4-{2-[4-(benzyloxy)-3-methoxyphenyl]imidazo[1,2-a]pyridin-3-yl}-N-{1-[2-(dimethylamino)ethyl]-1H-pyrazol-4-yl}pyrimidin-2-amine] | 101 to 500
CN(C)CCc1cccc(Nc2nccc(-c3c(-c4ccc(OCc5ccccc5)cc4)nn4cc(F)ccc34)n2)c1 [Example 77, 4-{2-[4-(benzyloxy)phenyl]-6-fluoropyrazolo[1,5-a]pyridin-3-yl}-N-{3-[2-(dimethylamino)ethyl]phenyl}pyrimidin-2-amine] | > 1000
COc1ccc(N2CCOCC2)cc1Nc1nccc(-c2c(-c3ccc(OCc4ccccc4)c(OC)c3)nc3ccccn23)n1 [Example 52, 4-{2-[4-(benzyloxy)-3-methoxyphenyl]imidazo[1,2-a]pyridin-3-yl}-N-(2-methoxy-5-morpholin-4-ylphenyl)pyrimidin-2-amine] | 101 to 500
COc1cc(N2CCC(N(C)C)CC2)ccc1Nc1nccc(-c2c(-c3ccc(OCc4ccccc4)c(OC)c3)nc3sccn23)n1 [Example 84, 4-{6-[4-(benzyloxy)-3-methoxyphenyl]imidazo[2,1-b][1,3]thiazol-5-yl}-N-{4-[4-(dimethylamino)piperidin-1-yl]-2-methoxyphenyl}pyrimidin-2-amine] | < 25
Cn1cc(Nc2nccc(-c3c(-c4ccc(OCc5ccccc5)cc4)nc4ccccn34)n2)cn1 [Example 26, 4-{2-[4-(benzyloxy)phenyl]imidazo[1,2-a]pyridin-3-yl}-N-(1-methyl-1H-pyrazol-4-yl)pyrimidin-2-amine] | 101 to 500
COc1cc(-c2nc3ccccn3c2-c2ccnc(Nc3ccc(N4CCC(N(C)C)CC4)cc3)n2)ccc1OCc1ccccc1 [Example 36, 4-{2-[4-(benzyloxy)-3-methoxyphenyl]imidazo[1,2-a]pyridin-3-yl}-N-{4-[4-(dimethylamino)piperidin-1-yl]phenyl}pyrimidin-2-amine] | < 25
COc1cc(NCC(C)(C)O)ccc1Nc1nccc(-c2c(-c3ccc(OCc4ccccc4)c(OC)c3)nc3ccccn23)n1 [Example 45, 1-({4-[(4-{2-[4-(benzyloxy)-3-methoxyphenyl]imidazo[1,2-a]pyridin-3-yl}pyrimidin-2-yl)amino]-3-methoxyphenyl}amino)-2-methylpropan-2-ol] | 101 to 500
CN(C)CCc1cccc(Nc2nccc(-c3c(-c4ccc(OCc5ccccc5)cc4F)nc4ccccn34)n2)c1 [Example 8, 4-{2-[4-(benzyloxy)-2-fluorophenyl]imidazo[1,2-a]pyridin-3-yl}-N-{3-[2-(dimethylamino)ethyl]phenyl}pyrimidin-2-amine] | 25 to 100
CC(Oc1ccc(-c2nc3ccccn3c2-c2ccnc(Nc3cccc(CCN(C)C)c3)n2)cc1)c1ccccc1 (stereo not drawn) [Example 21, N-{3-[2-(dimethylamino)ethyl]phenyl}-4-{2-[4-(1-phenylethoxy)phenyl]imidazo[1,2-a]pyridin-3-yl}pyrimidin-2-amine] | 101 to 500
COc1cc(N2CCSCC2)ccc1Nc1nccc(-c2c(-c3ccc(OCc4ccccc4)c(OC)c3)nc3ccccn23)n1 [Example 51, 4-{2-[4-(benzyloxy)-3-methoxyphenyl]imidazo[1,2-a]pyridin-3-yl}-N-(2-methoxy-4-thiomorpholin-4-ylphenyl)pyrimidin-2-amine] | 501 to 1000
CN(C)CCc1cccc(Nc2nccc(-c3c(-c4ccc(OCc5cccc(F)c5)cc4)nc4ccccn34)n2)c1 [Example 19, N-{3-[2-(dimethylamino)ethyl]phenyl}-4-(2-{4-[(3-fluorobenzyl)oxy]phenyl}imidazo[1,2-a]pyridin-3-yl)pyrimidin-2-amine] | 101 to 500
COc1ccc(N2CCSCC2)cc1Nc1nccc(-c2c(-c3ccc(OCc4ccccc4)c(OC)c3)nc3ccccn23)n1 [Example 73, 4-{2-[4-(benzyloxy)-3-methoxyphenyl]imidazo[1,2-a]pyridin-3-yl}-N-(2-methoxy-5-thiomorpholin-4-ylphenyl)pyrimidin-2-amine] | 101 to 500
COc1cc(N2CCOCC2)ccc1Nc1nccc(-c2c(-c3ccc(OCc4ccccc4)c(OC)c3)nc3ccccn23)n1 [Example 39, 4-{2-[4-(benzyloxy)-3-methoxyphenyl]imidazo[1,2-a]pyridin-3-yl}-N-(2-methoxy-4-morpholin-4-ylphenyl)pyrimidin-2-amine] | 101 to 500
COc1cc(-c2nc3ccccn3c2-c2ccnc(Nc3ccc4c(c3)CCNC4)n2)ccc1OCc1ccccc1 [Example 61, N-(4-{2-[4-(benzyloxy)-3-methoxyphenyl]imidazo[1,2-a]pyridin-3-yl}pyrimidin-2-yl)-1,2,3,4-tetrahydroisoquinolin-6-amine] | < 25
COc1cc(-c2nc3ccccn3c2-c2ccnc(Nc3ccc(NC(=O)CN(C)C)cc3)n2)ccc1OCc1ccccc1 [Example 65, N^1-{4-[(4-{2-[4-(benzyloxy)-3-methoxyphenyl]imidazo[1,2-a]pyridin-3-yl}pyrimidin-2-yl)amino]phenyl}-N^2,N^2-dimethylglycinamide] | 25 to 100
Fc1ccc(Nc2nccc(-c3c(-c4ccc(OCc5ccccc5)cc4)nc4ccccn34)n2)c(F)c1 [Example 29, 4-{2-[4-(benzyloxy)phenyl]imidazo[1,2-a]pyridin-3-yl}-N-(2,4-difluorophenyl)pyrimidin-2-amine] | > 1000
COc1cc(NCC(=O)O)ccc1Nc1nccc(-c2c(-c3ccc(OCc4ccccc4)c(OC)c3)nc3ccccn23)n1 [Example 53, N-{4-[(4-{2-[4-(benzyloxy)-3-methoxyphenyl]imidazo[1,2-a]pyridin-3-yl}pyrimidin-2-yl)amino]-3-methoxyphenyl}glycine] | 101 to 500
COc1ccc(C(F)(F)F)cc1Nc1nccc(-c2c(-c3ccc(OCc4ccccc4)c(OC)c3)nc3ccccn23)n1 [Example 40, 4-{2-[4-(benzyloxy)-3-methoxyphenyl]imidazo[1,2-a]pyridin-3-yl}-N-[2-methoxy-5-(trifluoromethyl)phenyl]pyrimidin-2-amine] | > 1000
COc1cc(-c2nc3ccccn3c2-c2ccnc(Nc3cccc(N4CCOCC4)c3)n2)ccc1OCc1ccccc1 [Example 25, 4-{2-[4-(benzyloxy)-3-methoxyphenyl]imidazo[1,2-a]pyridin-3-yl}-N-(3-morpholin-4-ylphenyl)pyrimidin-2-amine] | 101 to 500

— patent US8354422B2, “Pyrimidine inhibitors of kinase activity” (Abbott Laboratories Inc., priority 2009, dated 2013)
